Experimental data taken from patent US20110092544A1, “FUNGICIDAL PYRIDINES” (E.I. DU PONT DE nemours and company, priority 2008, published 2011).

How the values were obtained:
Type in all cases: in vivo
[1] = tested on: Alternaria solani; test: Test E: tomato early blight, preventive spray on tomato seedlings, visual disease rating; settings: for pest or weed control at 200 ppm: Alternaria solani, 168 h
Summary of the method: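 Seedlings sprayed to run-off with compound in acetone/water plus 250 ppm Trem 014 (200 ppm ≈ 500 g/ha), inoculated with spores next day. Held 48 h saturated at 27 °C, then 5 days at 20 °C; visual rating 0–100% disease control relative to controls.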

[2] = tested on: Plasmopara viticola; test: Test H: grape downy mildew, spray after inoculation of grape seedlings, visual disease rating; settings: 200 ppm, 100 = 100% disease control, 0 = no control
Excerpt: (§1) General protocol for preparing test suspensions for Tests A-H: The test compounds were first dissolved in acetone in an amount equal to 3% of the final volume and then suspended at the desired concentration (in ppm) in acetone and purified water (50/50 mix) containing 250 ppm of the surfactant Trem® 014 (polyhydric alcohol esters). The resulting test suspensions were then used in tests A-H. Spraying a 200 ppm test suspension to the point of run-off on the test plants was the equivalent of a rate of 500 g/ha.
Grape seedlings were inoculated with a spore suspension of Plasmopara viticola (the causal agent of grape downy mildew) and incubated in a saturated atmosphere at 20° C. for 24 h. After a short drying period, the test suspension was sprayed to the point of run-off on the grape seedlings, and then moved to a growth chamber at 20° C. for 6 days, after which time the test units were placed back into a saturated atmosphere at 20° C. for 24 h. Upon removal, disease ratings were visually made.
(§2) Results for Tests A-H are given in Table A. In the table, a rating of 100 indicates 100% disease control and a rating of 0 indicates no disease control (relative to the controls). A dash (-) indicates no test results. All results are for compounds tested at 200 ppm except where the compound number is followed by “*” which indicates the compound was tested at 40 ppm.

[3] = tested on: Puccinia recondite f. sp. tritici; test: Test B: wheat leaf rust, preventive spray on wheat seedlings, visual disease rating; settings: for pest or weed control at 200 ppm: 192 h
Summary of the method: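 Wheat seedlings were sprayed to run-off with compound suspension, 200 ppm (≈500 g/ha) or 40 ppm where marked, containing surfactant in acetone/water. Inoculation with Puccinia recondita spores followed one day later, then 24 h in saturated humidity at 20° C and 7 days at 20° C. Disease control was rated visually, 0–100% versus controls.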

[4] = tested on: Septoria tritici; test: Test C: wheat leaf blotch, preventive spray on wheat seedlings, visual disease rating; settings: 200 ppm, 100 = 100% disease control, 0 = no control
Summary of the method: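 Wheat seedlings sprayed to run-off with compound in acetone/water plus 250 ppm surfactant at 200 ppm (≈500 g/ha), or 40 ppm where marked; inoculated with Septoria tritici next day. Held saturated at 20 °C for 48 h, then 19 days at 20 °C; disease control rated visually 0–100 versus controls.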

[5] = tested on: Botrytis cinerea; test: Test F: tomato botrytis, preventive spray on tomato seedlings, visual disease rating; settings: for pest or weed control at 200 ppm: Botrytis cinerea, 120 h
Summary of the method: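 Tomato seedlings sprayed to run-off with compound suspended in acetone/water (50/50) plus 250 ppm Trem 014, at 200 ppm (≈500 g/ha) or 40 ppm where marked. Inoculated next day with B. cinerea spores, 48 h saturated atmosphere at 20 °C, then 3 days at 24 °C. Visual rating, 0–100% disease control relative to controls.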

[6] = tested on: Septoria nodorum; test: Test D: wheat glume blotch, preventive spray on wheat seedlings, visual disease rating; settings: for pest or weed control at 200 ppm: Parastagonospora nodorum, 216 h
Summary of the method: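 Compounds in 3% acetone, then 50/50 acetone–water with 250 ppm Trem 014, sprayed to run-off at 200 ppm (500 g/ha; some at 40 ppm) one day before spore inoculation. Held 48 h saturated at 20 °C, then 7 days at 20 °C; visual rating as % disease control vs untreated (0–100).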

[7] = tested on: Erysiphe graminis f. sp. tritici; test: Test A: wheat powdery mildew, preventive spray on wheat seedlings, visual disease rating; settings: for pest or weed control at 200 ppm: Blumeria graminis, 192 h
Summary of the method: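 Acetone/water (50/50) suspension with 250 ppm surfactant sprayed to run-off on wheat seedlings (200 ppm ≈ 500 g/ha); inoculated next day with E. graminis spore dust. Incubated 8 days at 20° C, then visually rated 0–100% disease control versus untreated controls; tests at 200 ppm or 40 ppm.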

[8] = tested on: Rhizoctonia oryzae; test: Test G: turf brown patch, preventive spray on creeping bent grass seedlings, visual disease rating; settings: for pest or weed control at 200 ppm: Waitea circinata, in Agrostis stolonifera, 120 h
Excerpt: as §1
The test suspension was sprayed to the point of run-off on creeping bent grass seedlings. The following day the seedlings were inoculated with a spore suspension of Rhizoctonia oryzae (the causal agent of turf brown patch) and incubated in a saturated atmosphere at 27° C. for 48 h, and then moved to a growth chamber at 27° C. for 3 days, after which time disease ratings were visually made.
as §2

[9] = 200 ppm, 100 = 100% disease control, 0 = no control
[10] = 40 ppm (compound number followed by *)

SMILES | Test E rating (% disease control) [1, 9] [%] | Test H rating (% disease control) [2] [%] | Test B rating (% disease control) [3, 9] [%] | Test C rating (% disease control) [4] [%] | Test F rating (% disease control) [5, 9] [%] | Test D rating (% disease control) [6, 9] [%] | Test A rating (% disease control) [7, 9] [%] | Test G rating (% disease control) [8, 9] [%] | further results
COc1cc(OC)cc(-c2c(C(C)C)cnc(C)c2-c2ccccc2)c1 [Compound 4] | 99 | 0 | 92 | 99 | 99 | 0 | 99 | 0 | 
COc1cc(OC)cc(-c2c(C(C)C)c[n+]([O-])c(C)c2-c2ccccc2)c1 [Compound 5] | 90 | 0 | 92 | 95 | 99 | 0 | 98 | 0 | 
CCOC(=O)c1cnc(C)c(-c2ccccc2)c1-c1cc(OC)c(OC)c(OC)c1 [Compound 6] | 0 | 0 | 0 | 1 | 89 | 0 | 0 | 0 | 
CCOC(=O)c1cnc(C)c(-c2ccccc2)c1-c1cc(OC)ccc1Cl [Compound 7] | 0 | 0 | 74 | 52 | 98 | 0 | 97 | 97 | 
COc1cc(OC)cc(-c2c(C(C)(C)O)cnc(C)c2-c2ccccc2F)c1 [Compound 18] |  | 0 | 99 | 100 | 97 | 0 | 98 | 47 | 
CCc1ncc(C(C)C)c(-c2cc(OC)cc(OC)c2)c1-c1ccccc1 [Compound 30] | 0 | 0 | 80 | 100 | 99 | 0 | 98 |  | 
COc1cc(OC)cc(-c2c(C(C)(C)O)cnc(C)c2-c2c(F)cccc2F)c1 [Compound 42] |  | 0 | 100 | 100 | 97 | 98 | 100 | 86 | 
C=C(C)c1cnc(C)c(-c2c(F)cc(F)cc2F)c1-c1cc(OC)cc(OC)c1 [Compound 43] | 100 |  | 100 | 100 | 100 | 78 | 100 | 100 | 
COc1cc(OC)cc(-c2c(C(C)C)cnc(C)c2-c2c(F)cccc2F)c1 [Compound 45] | 94 |  | 100 | 100 | 100 | 0 | 99 | 99 | 
COc1cc(OC)cc(-c2c(C3=CCCCC3)cnc(C)c2-c2ccc(F)cc2)c1 [Compound 46] | 31 |  | 95 |  | 98 | 0 | 81 | 0 | 
COc1cc(OC)cc(-c2c(C3CCCCC3)cnc(C)c2-c2ccc(F)cc2)c1 [Compound 47] | 67 |  | 97 |  | 96 | 0 | 91 | 99 | 
COc1cc(OC)cc(-c2c(C(C)C)cnc(C)c2-c2c(F)cc(F)cc2F)c1 [Compound 48] |  |  |  |  |  |  |  |  | Test E rating (% disease control) [1, 10]: 99%; Test B rating (% disease control) [3, 10]: 100%; Test F rating (% disease control) [5, 10]: 98%; Test D rating (% disease control) [6, 10]: 0%; Test A rating (% disease control) [7, 10]: 98%; Test G rating (% disease control) [8, 10]: 100%
COc1cc(OC)cc(-c2c(-c3ccc(F)cc3)c(C)nc(Cl)c2C2CCCC2)c1 [Compound 49, 2-chloro-3-cyclopentyl-4-(3,5-dimethoxyphenyl)-5-(4-fluorophenyl)-6-methylpyridine] |  |  |  |  |  |  |  |  | pest or weed control at 200 ppm [1, 9]: 16%; pest or weed control at 200 ppm [3, 9]: 0%; pest or weed control at 200 ppm [5, 9]: 0%; pest or weed control at 200 ppm [6, 9]: 0%; pest or weed control at 200 ppm [7, 9]: 0%; pest or weed control at 200 ppm [8, 9]: 0%
COc1cc(OC)cc(-c2c(C3CCCC3)cnc(C)c2-c2ccc(F)cc2)c1 [Compound 50, 5-cyclopentyl-4-(3,5-dimethoxyphenyl)-3-(4-fluorophenyl)-2-methylpyridine] |  |  |  |  |  |  |  |  | pest or weed control at 200 ppm [1, 9]: 100%; pest or weed control at 200 ppm [3, 9]: 99%; pest or weed control at 200 ppm [5, 9]: 97%; pest or weed control at 200 ppm [6, 9]: 60%; pest or weed control at 200 ppm [7, 9]: 92%; pest or weed control at 200 ppm [8, 9]: 98%
COc1cc(OC)cc(-c2c(C(C)(C)O)c[n+]([O-])c(C)c2-c2ccccc2)c1 [Compound 52] | 0 | 0 | 0 |  | 0 | 0 | 25 | 0 | 
